Entries after “also recorded” stand apart in the source; their conditions may differ. Ends that are not written are not given here.
Assays:
Type in all cases: cell-based
[1] = tested on: Raw264.7 cells; assay: Osteoclast differentiation inhibition, TRAP staining; settings: 10 ng/ml RANKL, 50 ng/ml TNF-α, 1 or 10 μg/ml peptide, five days
Description: In order to analyze the IL-3-like action and the inhibitory action of the peptides of SEQ ID NO: 1 and SEQ ID NO: 2, synthesized in synthetic example 1, TRAP staining was conducted using Raw264.7 strain differentiable into osteoclasts while referring to methods, such as tartrate-resistant acid phosphatase staining (Rizzino, et al. Cancer Res. 48:4266(1988)).
Raw264.7 cell lines (ATCC) were cultured in Dulbecco's modified Eagle's medium (DMEM, Gibco, U.S.A.) supplemented with 10% fetal bovine serum (FBS, Sigma) using each 250 ml-flask for tissue culture. The cultured cell lines were carefully detached from the bottom of the culture container using a pipette, followed by centrifugation, to obtain only cell precipitates. The cell precipitates were re-suspended in DMEM culture medium supplemented with 10% FBS, and then added to a […] for tissue culture plate at 1×10^4 cells per each well. For the induction of differentiation, the blank sample and RAW264.7 cells were treated with 10 ng/ml RANKL, 50 ng/ml TNF-α, and 1 μg/ml or 10 μg/ml synthesized peptides dissolved in 10% distilled water in a sterile state, […] After 72 hours, the medium was changed with the same culture liquid, and then the blank sample and the cells were treated with 10 ng/ml RANKL, 50 ng/ml TNF-α, and 1 μg/ml or 10 μg/ml synthesized peptides, and then cultured under the same conditions for 48 hours. […]

[2] = tested on: TRAP; assay: TRAP activity in differentiated Raw264.7 cells, absorbance 405 nm; settings: 10 ng/ml RANKL, 50 ng/ml TNF-α, 1 or 10 μg/ml peptide, five days
Description: Raw264.7 cells were treated in combination with 10 ng/ml RANKL, 50 ng/ml TNF-α, or the 1 or 10 μg/ml peptide synthesized in synthetic example 1 to induce differentiation for five days, and then the inhibition degree of the activity of TRAP, an osteoclast differentiation marker, was tested. After culture, the culture liquid was removed, and then 100 μl of a lysis buffer (20 mM tris buffer, 3% triton X-100) was added to disrupt cell walls. A reaction solution is prepared from 500 μl of a citrate solution (18 mM citric acid, 9 mM sodium chloride, 12 mM surfactant; pH 3.5), 50 μl of a tartrate solution, and 500 μl of a 20 mM phosphate substrate. 100 μl of the lysate and 100 μl of the reaction solution were added in the same amount, and then the reaction was conducted at 37° C. for 30 minutes. For colorimetric analysis, the absorbance was determined at 405 nm using a spectrophotometer. It was validated that, in cases where the treatment with the peptide of SEQ ID NO: 1 or SEQ ID NO: 2 together with RANKL and TNF-α, the peptides inhibited the activity of TRAP, which is an osteoclast differentiation marker, in a concentration-dependent manner (FIGS. 4a and 4b).

[3] = tested on: osteocalcin (OCN); assay: Osteoblast differentiation marker mRNA expression (PCR), OCN; settings: MC3T3-E1 cells, 10 or 50 μg/ml peptide, two days
Description: (§1) MC3T3-E1 cells were treated with 10 or 50 μg/ml of the peptides synthesized in synthetic example 1 to induce the differentiation for two days, and tests for verifying the mRNA expression of osteoblast differentiation markers, such as osteocalcin (OCN), osteoprotegerin (OPG), bone sialoprotein (BSP), and osteopontin (OPN), were conducted. Target-specific primer sequences used in PCR were as follows: OCN forward primer sequence, [NT] (SEQ ID NO:15) and OCN reverse primer sequence, [NT] (SEQ ID NO:16) (annealing temperature, 60° C.); OPG forward primer sequence, [NT] (SEQ ID NO:17) and OPG reverse primer sequence, [NT] (SEQ ID NO:18) (annealing temperature, 60° C.); BSP forward primer sequence, [NT] (SEQ ID NO:19) and BSP reverse primer sequence, [NT] (SEQ ID NO:20) (annealing temperature, 60° C.); OPN forward primer sequence, [NT] ID NO:21) and OPN reverse primer sequence, [NT] ID NO:22) (annealing temperature, 50° C.). […] Therefore, the peptides of the present invention can promote osteoblast differentiation by increasing the genetic expressions of OCN, OPG, BSP, and OPN, which are osteoblast differentiation markers.

[4] = tested on: osteoprotegerin (OPG); assay: Osteoblast differentiation marker mRNA expression (PCR), OPG; settings: MC3T3-E1 cells, 10 or 50 μg/ml peptide, two days
Description: as §1

[5] = tested on: bone sialoprotein (BSP); assay: Osteoblast differentiation marker mRNA expression (PCR), BSP; settings: MC3T3-E1 cells, 10 or 50 μg/ml peptide, two days
Description: as §1

[6] = tested on: osteopontin (OPN); assay: Osteoblast differentiation marker mRNA expression (PCR), OPN; settings: MC3T3-E1 cells, 10 or 50 μg/ml peptide, two days
Description: as §1

[7] = tested on: pSmad1/5/8; assay: Osteogenic differentiation signal, Smad1/5/8 phosphorylation, western blotting; settings: MC3T3-E1 cells, serum-starved 24 hours, 10 μg/ml peptide, 30 minutes
Description: In order to verify whether pSmad1/5/8, which is a signal involved in osteogenic differentiation, was activated by the present peptides, MC3T3-E1 cells were dispensed into 6-well plates at 2×10^5 cells, and then cultured for 24 hours under the conditions of 37° C. and 5% CO2. After 24 hours, the medium was changed with a serum-free medium, and then the cells were starved for 24 hours, treated with the 10 μg/ml peptides or 50 ng/ml BMP2, used as a positive control, for 30 minutes, washed with PBS, and dissolved in a lysis buffer, thereby obtaining proteins, which were then subjected to western blotting.

Sequence	RANKL- and TNF-α-induced differentiation of Raw264.7 into osteoclasts [1]	activity of TRAP, osteoclast differentiation marker [2]	mRNA level of osteocalcin (OCN) [3]	mRNA level of osteoprotegerin (OPG) [4]	mRNA level of bone sialoprotein (BSP) [5]	mRNA level of osteopontin (OPN) [6]	phosphorylation of Smad1/5/8 [7]
RRKLTFYLKTLE [SEQ ID NO: 2, IL-3-derived synthetic peptide, 12 amino acids]	inhibit	inhibited	increased	increased	increased	increased	led to the phosphorylation of Smad1/5/8; also recorded: increased
NCSNMICEIITH (cysteine pairing not given here) [SEQ ID NO: 1, IL-3-derived synthetic peptide, 12 amino acids]	inhibit	inhibited	increased	increased	increased	increased	led to the phosphorylation of Smad1/5/8; also recorded: increased

From patent US10669312B2, “Peptide for suppressing osteoclast differentiation and use thereof” (CAREGEN CO., LTD., priority 2013, dated 2020)
